In patent publication US20260028326A1, “COMPOUND BASED ON ISOINDOLINE-SUBSTITUTED GLUTARIMIDE BACKBONE AND USE THEREOF” (GLUETACS THERAPEUTICS (SHANGHAI) CO., LTD., priority 2022, published 2026) one finds IC50 data, which are given here for 24 molecules.

Chain of human Cereblon WT GST-tagged protein (Q96SW2 whole entry): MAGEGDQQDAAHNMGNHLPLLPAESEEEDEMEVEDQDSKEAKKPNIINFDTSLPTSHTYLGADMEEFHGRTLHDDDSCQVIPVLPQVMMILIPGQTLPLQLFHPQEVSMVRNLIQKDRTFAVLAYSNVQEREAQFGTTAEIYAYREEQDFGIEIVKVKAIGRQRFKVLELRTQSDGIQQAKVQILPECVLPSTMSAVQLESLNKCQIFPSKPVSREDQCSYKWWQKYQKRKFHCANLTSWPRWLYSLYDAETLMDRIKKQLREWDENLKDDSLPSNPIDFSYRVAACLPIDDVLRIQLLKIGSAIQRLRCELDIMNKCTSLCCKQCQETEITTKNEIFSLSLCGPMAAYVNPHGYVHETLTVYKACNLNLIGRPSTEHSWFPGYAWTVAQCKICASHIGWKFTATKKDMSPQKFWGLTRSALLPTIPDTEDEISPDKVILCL

This assay has as its target human Cereblon WT GST-tagged protein (Homo sapiens (Human), UniProt Q96SW2). Description: CRBN-binding affinity, HTRF (CEREBLON BINDING kit). The method in brief: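 HTRF competition readout: compounds compete with a thalidomide-Re conjugate for GST-tagged wild-type human CRBN detected via Eu-labelled anti-GST antibody. Inhibition rate derived relative to protein-free blank wells.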
(In general: In TR-FRET formats the signal depends on donor and acceptor labels being close together.)
Take `CC1(C)CCC(C(=O)N2CC3CCC(C2)N3c2ccc3c(c2)CN(C2CCC(=O)NC2=O)C3=O)=C(c2ccc(F)cc2)C1` (stereo not drawn) [GT-05492, 3-(5-(3-(4′-fluoro-5,5-dimethyl-3,4,5,6-tetrahydro-[1,1′-biphenyl]-2-carbonyl)-3,8-diazabicyclo[3.2.1]octan-8-yl)-1-oxoisoindolin-2-yl)piperidine-2,6-dione]: the IC50 (usually the concentration that gives 50% inhibition) stood at 0.83 µM. The result for `CC1(C)CCC(CN2CC(Cc3ccc4c(c3)CN(C3CCC(=O)NC3=O)C4=O)C2)=C(c2ccc(F)cc2)C1` (stereo not drawn) [GT-05493, 3-(5-((1-((4′-fluoro-5,5-dimethyl-3,4,5,6-tetrahydro-[1,1′-biphenyl]-2-yl)methyl)azetidin-3-yl)methyl)-1-oxoisoindolin-2-yl)piperidine-2,6-dione] reads 0.76 µM; that for `CC1(C)CCC(CN2CC3CCC(C2)N3c2ccc3c(c2)CN(C2CCC(=O)NC2=O)C3=O)=C(c2ccc(F)cc2)C1` (stereo not drawn) [GT-05498, 3-(5-(3-((4′-fluoro-5,5-dimethyl-3,4,5,6-tetrahydro-[1,1′-biphenyl]-2-yl)methyl)-3,8-diazabicyclo[3.2.1]octan-8-yl)-1-oxoisoindolin-2-yl)piperidine-2,6-dione], 1.52 µM; that for `CC1(C)CCC(CN2CC(O)(C(O)c3ccc4c(c3)CN(C3CCC(=O)NC3=O)C4=O)C2)=C(c2ccc(F)cc2)C1` (stereo not drawn) [GT-05499, 3-(5-((1-((4′-fluoro-5,5-dimethyl-3,4,5,6-tetrahydro-[1,1′-biphenyl]-2-yl)methyl)-3-hydroxyazetidin-3-yl)(hydroxy)methyl)-1-oxoisoindolin-2-yl)piperidine-2,6-dione], 0.67 µM. The result for `CC1(C)CCC(CN2C3CCC2CN(c2ccc4c(c2)CN(C2CCC(=O)NC2=O)C4=O)C3)=C(c2ccc(F)cc2)C1` (stereo not drawn) [GT-05500, 3-(5-(8-((4′-fluoro-5,5-dimethyl-3,4,5,6-tetrahydro-[1,1′-biphenyl]-2-yl)methyl)-3,8-diazabicyclo[3.2.1]octan-3-yl)-1-oxoisoindolin-2-yl)piperidine-2,6-dione] reads 1.87 µM; that for `CC1(C)CCC(CN2CCCN(C(=O)c3ccc4c(c3)CN(C3CCC(=O)NC3=O)C4=O)CC2)=C(c2ccc(F)cc2)C1` (stereo not drawn) [GT-05505, 3-(5-(4-((4′-fluoro-5,5-dimethyl-3,4,5,6-tetrahydro-[1,1′-biphenyl]-2-yl)methyl)-1,4-diazepane-1-carbonyl)-1-oxoisoindolin-2-yl)piperidine-2,6-dione], 0.81 µM. Under `CC1(C)CCC(CN2CCC3(CC2)CN(Cc2ccc4c(c2)CN(C2CCC(=O)NC2=O)C4=O)C3)=C(c2ccc(F)cc2)C1` (stereo not drawn) [GT-05506, 3-(5-((7-((4′-fluoro-5,5-dimethyl-3,4,5,6-tetrahydro-[1,1′-biphenyl]-2-yl)methyl)-2,7-diazaspiro[3.5]nonan-2-yl)methyl)-1-oxoisoindolin-2-yl)piperidine-2,6-dione] stands 0.54 µM; under `CC1(C)CCC(CN2CCC3(CC2)CN(C(=O)c2ccc4c(c2)CN(C2CCC(=O)NC2=O)C4=O)C3)=C(c2ccc(F)cc2)C1` (stereo not drawn) [GT-05507, 3-(5-(7-((4′-fluoro-5,5-dimethyl-3,4,5,6-tetrahydro-[1,1′-biphenyl]-2-yl)methyl)-2,7-diazaspiro[3.5]nonane-2-carbonyl)-1-oxoisoindolin-2-yl)piperidine-2,6-dione], 1.24 µM; under `CC1(C)CCC(CN2CC3(C2)CN(C(=O)c2ccc4c(c2)CN(C2CCC(=O)NC2=O)C4=O)C3)=C(c2ccc(F)cc2)C1` (stereo not drawn) [GT-05508, 3-(5-(6-((4′-fluoro-5,5-dimethyl-3,4,5,6-tetrahydro-[1,1′-biphenyl]-2-yl)methyl)-2,6-diazaspiro[3.3]heptane-2-carbonyl)-1-oxoisoindolin-2-yl)piperidine-2,6-dione], 0.72 µM. `CC1(C)CCC(CN2C3CC2CN(Cc2ccc4c(c2)CN(C2CCC(=O)NC2=O)C4=O)C3)=C(c2ccc(F)cc2)C1` (stereo not drawn) [GT-05509, 3-(5-((6-((4′-fluoro-5,5-dimethyl-3,4,5,6-tetrahydro-[1,1′-biphenyl]-2-yl)methyl)-3,6-diazabicyclo[3.1.1]heptan-3-yl)methyl)-1-oxoisoindolin-2-yl)piperidine-2,6-dione] had an IC50 of 0.25 µM. The result for `CC1(C)CCC(CN2C3CCC2CN(Cc2ccc4c(c2)CN(C2CCC(=O)NC2=O)C4=O)C3)=C(c2ccc(F)cc2)C1` (stereo not drawn) [GT-05510, 3-(5-((8-((4′-fluoro-5,5-dimethyl-3,4,5,6-tetrahydro-[1,1′-biphenyl]-2-yl)methyl)-3,8-diazabicyclo[3.2.1]octan-3-yl)methyl)-1-oxoisoindolin-2-yl)piperidine-2,6-dione] reads 1.22 µM; that for `CC1(C)CCC(CN2C3CCC2CN(C(=O)c2ccc4c(c2)CN(C2CCC(=O)NC2=O)C4=O)C3)=C(c2ccc(F)cc2)C1` (stereo not drawn) [GT-05511, 3-(5-(8-((4′-fluoro-5,5-dimethyl-3,4,5,6-tetrahydro-[1,1′-biphenyl]-2-yl)methyl)-3,8-diazabicyclo[3.2.1]octane-3-carbonyl)-1-oxoisoindolin-2-yl)piperidine-2,6-dione], 1.95 µM; that for `CC1(C)CCC(C(=O)N2CC3CC(C2)N3Cc2ccc3c(c2)CN(C2CCC(=O)NC2=O)C3=O)=C(c2ccc(F)cc2)C1` (stereo not drawn) [GT-05514, 3-(5-((3-(4′-fluoro-5,5-dimethyl-3,4,5,6-tetrahydro-[1,1′-biphenyl]-2-carbonyl)-3,6-diazabicyclo[3.1.1]heptan-6-yl)methyl)-1-oxoisoindolin-2-yl)piperidine-2,6-dione], 0.74 µM. In turn, `CC1(C)CCC(C(=O)N2CC3CCC(C2)N3Cc2ccc3c(c2)CN(C2CCC(=O)NC2=O)C3=O)=C(c2ccc(F)cc2)C1` (stereo not drawn) [GT-05516, 3-(5-((3-(4′-fluoro-5,5-dimethyl-3,4,5,6-tetrahydro-[1,1′-biphenyl]-2-carbonyl)-3,8-diazabicyclo[3.2.1]octan-8-yl)methyl)-1-oxoisoindolin-2-yl)piperidine-2,6-dione] came in with an IC50 of 0.6 µM. Under `CC1(C)CCC(C(=O)N2C3CCC2CN(Cc2ccc4c(c2)CN(C2CCC(=O)NC2=O)C4=O)C3)=C(c2ccc(F)cc2)C1` (stereo not drawn) [GT-05517, 3-(5-((8-(4′-fluoro-5,5-dimethyl-3,4,5,6-tetrahydro-[1,1′-biphenyl]-2-carbonyl)-3,8-diazabicyclo[3.2.1]octan-3-yl)methyl)-1-oxoisoindolin-2-yl)piperidine-2,6-dione] stands 0.6 µM; under `CC1(C)CCC(C(=O)N2CCN(Cc3ccc4c(c3)CN(C3CCC(=O)NC3=O)C4=O)CC2)=C(c2ccc(F)cc2)C1` (stereo not drawn) [GT-05520, 3-(5-((4-(4′-fluoro-5,5-dimethyl-3,4,5,6-tetrahydro-[1,1′-biphenyl]-2-carbonyl)piperazin-1-yl)methyl)-1-oxoisoindolin-2-yl)piperidine-2,6-dione], 0.35 µM. In the case of `CC1(C)CCC(C(=O)N2CC3CC(C2)N3Cc2ccc3c(c2)CN(C2CCC(=O)NC2=O)C3=O)=C(c2ccc(Cl)cc2)C1` (stereo not drawn) [GT-05521, 3-(5-((3-(4′-chloro-5,5-dimethyl-3,4,5,6-tetrahydro-[1,1′-biphenyl]-2-carbonyl)-3,6-diazabicyclo[3.1.1]heptan-6-yl)methyl)-1-oxoisoindolin-2-yl)piperidine-2,6-dione], the half-inhibitory concentration (IC50) was found to be 0.62 µM. Under `CC1(C)CCC(C(=O)N2CC3CCC(C2)N3Cc2ccc3c(c2)CN(C2CCC(=O)NC2=O)C3=O)=C(c2ccc(Cl)cc2)C1` (stereo not drawn) [GT-05522, 3-(5-((3-(4′-chloro-5,5-dimethyl-3,4,5,6-tetrahydro-[1,1′-biphenyl]-2-carbonyl)-3,8-diazabicyclo[3.2.1]octan-8-yl)methyl)-1-oxoisoindolin-2-yl)piperidine-2,6-dione] stands 0.48 µM; under `CC1(C)CCC(C(=O)N2C3CCC2CN(Cc2ccc4c(c2)CN(C2CCC(=O)NC2=O)C4=O)C3)=C(c2ccc(Cl)cc2)C1` (stereo not drawn) [GT-05523, 3-(5-((8-(4′-chloro-5,5-dimethyl-3,4,5,6-tetrahydro-[1,1′-biphenyl]-2-carbonyl)-3,8-diazabicyclo[3.2.1]octan-3-yl)methyl)-1-oxoisoindolin-2-yl)piperidine-2,6-dione], 0.86 µM. As to `CC1(C)CCC(C(=O)N2CC3CC2CN3Cc2ccc3c(c2)CN(C2CCC(=O)NC2=O)C3=O)=C(c2ccc(Cl)cc2)C1` (stereo not drawn) [GT-05524, 3-(5-((5-(4′-chloro-5,5-dimethyl-3,4,5,6-tetrahydro-[1,1′-biphenyl]-2-carbonyl)-2,5-diazabicyclo[2.2.1]heptan-2-yl)methyl)-1-oxoisoindolin-2-yl)piperidine-2,6-dione], the IC50 was 0.49 µM. Under `CC1(C)CCC(C(=O)N2CCN(Cc3ccc4c(c3F)CN(C3CCC(=O)NC3=O)C4=O)CC2)=C(c2ccc(Cl)cc2)C1` (stereo not drawn) [GT-05525, 3-(5-((4-(4′-chloro-5,5-dimethyl-3,4,5,6-tetrahydro-[1,1′-biphenyl]-2-carbonyl)piperazin-1-yl)methyl)-4-fluoro-1-oxoisoindolin-2-yl)piperidine-2,6-dione] stands 0.71 µM. Under `CC1(C)CCC(C(=O)N2CCN(Cc3cc(F)c4c(c3)CN(C3CCC(=O)NC3=O)C4=O)CC2)=C(c2ccc(Cl)cc2)C1` (stereo not drawn) [GT-05527, 3-(5-((4-(4′-chloro-5,5-dimethyl-3,4,5,6-tetrahydro-[1,1′-biphenyl]-2-carbonyl)piperazin-1-yl)methyl)-7-fluoro-1-oxoisoindolin-2-yl)piperidine-2,6-dione] stands 0.99 µM; under `CC1(C)CCC(C(=O)N2CCN(Cc3cccc4c3CN(C3CCC(=O)NC3=O)C4=O)CC2)=C(c2ccc(Cl)cc2)C1` (stereo not drawn) [GT-05528, 3-(4-((4-(4′-chloro-5,5-dimethyl-3,4,5,6-tetrahydro-[1,1′-biphenyl]-2-carbonyl)piperazin-1-yl)methyl)-1-oxoisoindolin-2-yl)piperidine-2,6-dione], 1.93 µM.

Consider `CC1(C)CCC(CN2C3CC2CN(Cc2cc4c(cc2F)C(=O)N(C2CCC(=O)NC2=O)C4)C3)=C(c2ccc(Cl)cc2)C1` (stereo not drawn) [GT-05530, 3-(5-((6-((4′-chloro-5,5-dimethyl-3,4,5,6-tetrahydro-[1,1′-biphenyl]-2-yl)methyl)-3,6-diazabicyclo[3.1.1]heptan-3-yl)methyl)-6-fluoro-1-oxoisoindolin-2-yl)piperidine-2,6-dione], for which the IC50 was 1.2 µM.
